Laboratory results reported in patent publication US10611740B2, “Aryl dihydro-2H-benzo[b][1,4]oxazine sulfonamide and related compounds for use as agonists of RORγ and the treatment of disease” (Lycera Corporation, priority 2015, dated 2020).

Experiments:
Gal4-RORγ-LBD = biological target: T1, Gal4-RORγ-LBD (Homo sapiens, UniProt P51449); test: Gal4-RORγ Luciferase Reporter Assay in HEK-293T Cells; format: cell-based; details: HEK-293 cells
T1 construct: expressed in transfected cells; host or cells: HEK-293 cells (pcDNA3.1neo plasmid)
T1 sequence (P51449 269-508 limits assumed): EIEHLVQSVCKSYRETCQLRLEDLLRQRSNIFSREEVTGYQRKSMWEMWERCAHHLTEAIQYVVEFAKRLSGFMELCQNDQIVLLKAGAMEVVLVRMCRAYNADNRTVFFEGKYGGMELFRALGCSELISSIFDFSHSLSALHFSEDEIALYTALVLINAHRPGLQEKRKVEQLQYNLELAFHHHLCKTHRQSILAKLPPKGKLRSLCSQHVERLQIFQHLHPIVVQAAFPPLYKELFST
In short: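 Luminescence read-out (One-Glo, 10 min RT) after overnight compound exposure at 37 °C in HEK-293 cells carrying Gal4-RORγ-LBD plus a Gal4-luciferase reporter, in the presence of 2 μM ursolic acid. Max Response is the upper plateau from a 4-parameter logistic fit, normalized to untreated signal = 100.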

RORγ-LBD = biological target: T2, RORγ-LBD (Homo sapiens, UniProt P51449); test: RORγ-Ligand Binding Domain (LBD) TR-FRET Assay; format: biochemical;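 for TR-FRET Assay Max Response: 665/615 nm ratio relative to signal without ursolic acid or compound set at 100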
T2 construct: made in house; host or cells: SF9 cells (baculovirus)
T2 sequence (P51449 269-508 limits assumed): T1 sequence (P51449 269-508 limits assumed)
In short: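 This TR-FRET coactivator assay pairs baculovirus-expressed His-RORγ-LBD (~3 nM final) with biotin-SRC1 LXXLL peptide at 200 nM final in pH 7.0 Tris/KCl/EDTA/DTT/BSA buffer.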

[1] = luciferase reporter, with 2 μM ursolic acid

Row | EC50 (Gal4-RORγ-LBD; [1]) [nM] | EC50 (RORγ-LBD) [nM] | EC50 (Gal4-RORγ-LBD; 2 μM ursolic acid) [nM] | SMILES | Gal4-RORγ Assay Max Response (Gal4-RORγ-LBD; [1]) | TR-FRET Assay Max Response (RORγ-LBD) | Gal4-RORγ Assay Max Response (Gal4-RORγ-LBD; 2 μM ursolic acid)
1 |  | < 500 | < 500 | O=C(O)C1(C[C@H]2CN(S(=O)(=O)c3cccc(C(F)(F)F)c3)c3cc(-c4cccc(Cl)c4F)ccc3O2)CCOCC1 [Compound 78F, (S)-4-((6-(3-chloro-2-fluoro-phenyl)-4-((3-(trifluoromethyl)-phenyl)sulfonyl)-3,4-dihydro-2H-benzo[b][1,4]oxazin-2-yl)methyl)tetrahydro-2H-pyran-4-carboxylic acid] |  | ** (The symbol “**” indicates a value in the range of greater than 90 to 150) | ** (The symbol “**” indicates a value in the range of greater than 90 to 150)
2 | < 500 | < 500 |  | O=C(O)C1CCN(C(=O)CC[C@H]2CN(S(=O)(=O)c3cccc(C(F)(F)F)c3)c3cc(-c4cccc(F)c4F)cc(F)c3O2)CC1 [Compound 23I, (S)-1-(3-(6-(2,3-difluorophenyl)-8-fluoro-4-((3-(trifluoromethyl)phenyl)sulfonyl)-3,4-dihydro-2H-benzo[b][1,4]oxazin-2-yl)propanoyl)piperidine-4-carboxylic acid] | ** (The symbol “**” indicates a value in the range of greater than 90 to 150) | **** (The symbol “****” indicates a value greater than 200) | 
3 | 500 to 5000 | < 500 |  | O=C(CC[C@H]1CN(S(=O)(=O)c2cccc(C(F)(F)F)c2)c2cc(-c3cc(F)ccc3F)ccc2O1)NC[C@H](O)C(=O)O [Compound 23S, (S)-3-(3-((S)-6-(2,5-difluoro-phenyl)-4-((3-(trifluoromethyl)-phenyl)sulfonyl)-3,4-dihydro-2H-benzo[b][1,4]oxazin-2-yl)propanamido)-2-hydroxypropanoic acid] | ** (The symbol “**” indicates a value in the range of greater than 90 to 150) | **** (The symbol “****” indicates a value greater than 200) | 
4 | < 500 | < 500 |  | CC(C)(C[C@H]1CN(S(=O)(=O)c2cccc(C(F)(F)F)c2)c2cc(-c3cc(Cl)cc(OC(F)F)c3)ccc2O1)C(=O)O [Compound 32R, (S)-3-(6-(3-chloro-5-(difluoro-methoxy)phenyl)-4-((3-(trifluoro-methyl)phenyl)sulfonyl)-3,4-dihydro-2H-benzo[b][1,4]oxazin-2-yl)-2,2-dimethylpropanoic acid] | ** (The symbol “**” indicates a value in the range of greater than 90 to 150) | *** (The symbol “***” indicates a value in the range of greater than 150 to 200) | 
5 | < 500 | < 500 |  | O=C(O)C1CCN(C(=O)CC[C@H]2CN(S(=O)(=O)c3cccc(C(F)(F)F)c3)c3cc(-c4cccc(Cl)c4)cc(F)c3O2)CC1 [Compound 9, (S)-1-(3-(6-(3-chlorophenyl)-8-fluoro-4-((3-(trifluoromethyl)phenyl)sulfonyl)-3,4-dihydro-2H-benzo[b][1,4]oxazin-2-yl)propanoyl)piperidine-4-carboxylic acid] | ** (The symbol “**” indicates a value in the range of greater than 90 to 150) | **** (The symbol “****” indicates a value greater than 200) | 
6 |  | < 500 |  | O=C(O)CC[C@H]1CN(S(=O)(=O)c2cccc(C(F)(F)F)c2)c2cc(-c3cc(F)ccc3Cl)ccc2O1 [Compound 2AI, (S)-3-(6-(2-chloro-5-fluoro-phenyl)-4-((3-(trifluoromethyl)-phenyl)sulfonyl)-3,4-dihydro-2H-benzo[b][1,4]oxazin-2-yl)propanoic acid] | ** (The symbol “**” indicates a value in the range of greater than 90 to 150) | **** (The symbol “****” indicates a value greater than 200) | 
7 | 500 to 5000 | < 500 |  | O=C(O)C1CCN(C(=O)NC[C@H]2CN(S(=O)(=O)c3cccc(C(F)(F)F)c3)c3cc(-c4cc(F)ccc4F)ccc3O2)CC1 [Compound 23Q, (S)-1-(((6-(2,5-difluorophenyl)-4-((3-(trifluoromethyl)-phenyl)sulfonyl)-3,4-dihydro-2H-benzo[b][1,4]oxazin-2-yl)methyl)carbamoyl)piperidine-4-carboxylic acid] | *** (The symbol “***” indicates a value in the range of greater than 150 to 200) | **** (The symbol “****” indicates a value greater than 200) | 

The remaining lines, values behind:

Row | SMILES | EC50 (Gal4-RORγ-LBD; [1]) [nM] | EC50 (RORγ-LBD) [nM] | EC50 (Gal4-RORγ-LBD; 2 μM ursolic acid) [nM] | Gal4-RORγ Assay Max Response (Gal4-RORγ-LBD; [1]) | TR-FRET Assay Max Response (RORγ-LBD) | Gal4-RORγ Assay Max Response (Gal4-RORγ-LBD; 2 μM ursolic acid)
8 | COc1cccc(-c2ccc3c(c2)N(S(=O)(=O)c2cccc(C(F)(F)F)c2)C[C@H](CCc2n[nH]c(=O)o2)O3)c1 [Compound 28E, (S)-5-(2-(6-(3-methoxyphenyl)-4-((3-(trifluoromethyl)phenyl)-sulfonyl)-3,4-dihydro-2H-benzo[b][1,4]oxazin-2-yl)ethyl)-1,3,4-oxadiazol-2(3H)-one] | < 500 | < 500 |  | ** (The symbol “**” indicates a value in the range of greater than 90 to 150) | **** (The symbol “****” indicates a value greater than 200) | 
9 | COc1cc(F)cc(-c2ccc3c(c2)N(S(=O)(=O)c2cccc(C(F)(F)F)c2)C[C@H](CNC(=O)[C@@](C)(O)C(F)(F)F)O3)c1F [Compound 30BF, (R)-N-(((S)-6-(2,5-difluoro-3-methoxyphenyl)-4-((3-(trifluoro-methyl)phenyl)sulfonyl)-3,4-dihydro-2H-benzo[b][1,4]-oxazin-2-yl)methyl)-3,3,3-trifluoro-2-hydroxy-2-methylpropanamide] | < 500 | < 500 |  | * (The symbol “*” indicates a value in the range of 25 to 90) | **** (The symbol “****” indicates a value greater than 200) | 
10 | C=CCC(=O)NC[C@H]1CN(S(=O)(=O)c2cccc(C(F)(F)F)c2)c2cc(-c3cc(F)ccc3F)ccc2O1 [Compound 30AW, (S)-N-((6-(2,5-difluorophenyl)-4-((3-(trifluoromethyl)phenyl)-sulfonyl)-3,4-dihydro-2H-benzo[b][1,4]oxazin-2-yl)methyl)but-3-enamide] | < 500 | < 500 |  | ** (The symbol “**” indicates a value in the range of greater than 90 to 150) | *** (The symbol “***” indicates a value in the range of greater than 150 to 200) | 
11 | Cc1nnc(-c2ccc3c(c2)N(S(=O)(=O)c2cccc(C(F)(F)F)c2)C[C@H](CCC(=O)O)O3)o1 [Compound 4Z, (S)-3-(6-(5-methyl-1,3,4-oxadiazol-2-yl)-4-((3-(trifluoro-methyl)phenyl)sulfonyl)-3,4-dihydro-2H-benzo[b][1,4]-oxazin-2-yl)propanoic acid] | > 10000 | 500 to 5000 |  |  | * (The symbol “*” indicates a value in the range of 25 to 90) | 
12 | CC(C)(C[C@H]1CN(S(=O)(=O)c2cccc(C(F)(F)F)c2)c2cc(-c3cccc(C(F)F)c3)ccc2O1)C(=O)O [Compound 32AL, (S)-3-(6-(3-(difluoromethyl)-phenyl)-4-((3-(trifluoromethyl)-phenyl)sulfonyl)-3,4-dihydro-2H-benzo[b][1,4]oxazin-2-yl)-2,2-dimethylpropanoic acid] |  | < 500 | < 500 |  | ** (The symbol “**” indicates a value in the range of greater than 90 to 150) | ** (The symbol “**” indicates a value in the range of greater than 90 to 150)
13 | CC(=O)N[C@H]1C[C@H](C[C@H]2CN(S(=O)(=O)c3cccc(C(F)(F)F)c3)c3cc(-c4cc(F)ccc4F)ccc3O2)C1 [Compound 60E, N-((1S,3r)-3-(((S)-6-(2,5-difluorophenyl)-4-((3-(trifluoro-methyl)phenyl)sulfonyl)-3,4-dihydro-2H-benzo[b][1,4]oxazin-2-yl)methyl)cyclobutyl)-acetamide] |  | < 500 | < 500 |  | *** (The symbol “***” indicates a value in the range of greater than 150 to 200) | ** (The symbol “**” indicates a value in the range of greater than 90 to 150)
14 | COc1cccc(-c2ccc3c(c2)N(S(=O)(=O)c2cccc(C(F)(F)F)c2)C[C@H](CC(C)(C)C(=O)O)O3)c1OC [Compound 32V, (S)-3-(6-(2,3-dimethoxyphenyl)-4-((3-(trifluoromethyl)phenyl)-sulfonyl)-3,4-dihydro-2H-benzo[b][1,4]oxazin-2-yl)-2,2-dimethylpropanoic acid] |  | < 500 | < 500 |  | *** (The symbol “***” indicates a value in the range of greater than 150 to 200) | ** (The symbol “**” indicates a value in the range of greater than 90 to 150)
15 | CC[C@@H](C[C@H]1CN(S(=O)(=O)c2cccc(C(F)(F)F)c2)c2cc(-c3cc(F)cc(F)c3Cl)ccc2O1)C(=O)O [Compound 46G, (S)-2-(((S)-6-(2-chloro-3,5-difluorophenyl)-4-((3-(trifluoro-methyl)phenyl)sulfonyl)-3,4-dihydro-2H-benzo[b][1,4]oxazin-2-yl)methyl)butanoic acid] |  | < 500 | < 500 |  | ** (The symbol “**” indicates a value in the range of greater than 90 to 150) | ** (The symbol “**” indicates a value in the range of greater than 90 to 150)
